This experiment has as its target CAPON (NOS1AP), recombinant, C-terminal His tag (Homo sapiens, UniProt O75052). Put plainly: microscale thermophoresis. In kind it is binding. For orientation: Microscale thermophoresis detects binding through changes in fluorescence in a small temperature gradient.

CAPON (NOS1AP), recombinant, C-terminal His tag, sequence (O75052 whole entry): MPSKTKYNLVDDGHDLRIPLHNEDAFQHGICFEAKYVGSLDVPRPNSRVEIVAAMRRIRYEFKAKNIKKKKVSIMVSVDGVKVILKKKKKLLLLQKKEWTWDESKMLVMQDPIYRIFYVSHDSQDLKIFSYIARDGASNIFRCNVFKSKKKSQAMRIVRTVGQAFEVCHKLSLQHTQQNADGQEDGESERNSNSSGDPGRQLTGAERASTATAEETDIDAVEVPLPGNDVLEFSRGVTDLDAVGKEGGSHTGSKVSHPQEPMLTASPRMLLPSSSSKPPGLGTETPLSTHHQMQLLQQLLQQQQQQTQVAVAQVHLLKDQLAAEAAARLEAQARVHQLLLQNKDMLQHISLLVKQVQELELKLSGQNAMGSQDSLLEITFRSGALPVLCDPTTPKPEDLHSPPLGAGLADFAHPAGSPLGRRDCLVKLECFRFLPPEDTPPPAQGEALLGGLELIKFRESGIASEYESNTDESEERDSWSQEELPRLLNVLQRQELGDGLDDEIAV

As a reminder, the Kd is the free concentration of one partner at which half of the binding sites on the other are occupied at equilibrium, for simple one-to-one binding. In the case of `COc1ccc(NC(=O)c2ccco2)cc1NC(=O)c1cc2ccccc2cc1OC` [MA32], the Kd is 74 ± 15 µM.

The values above are taken from doi:10.1101/2025.11.05.686689v1 (biorxiv, 2025).
